Read-outs that look alike come from different tables or passages of the source.
How the values were obtained:
[1] = Open-label, parallel-group single-dose PK study of etrasimod in patients with hepatic impairment and matched controls; assay type: in vivo, human; conditions: single oral dose 2 mg; for half-life: po, 2 mg, read-out: t1/2, mean (converted)
From the text: (§1) A study evaluated the effect of hepatic impairment on the PK, safety, and tolerability of etrasimod.
An open-label, parallel-group study included 36 patients (aged 18-80 years; body mass index ≥18) with hepatic impairment, based on Child-Pugh score at screening (mild=5-6 [n=8], moderate=7-9 [n=8], severe=10-14 [n=6]), and demographically matched control patients with normal hepatic function (n=14 total). The first patient with severe hepatic impairment was enrolled after ≥2 patients with mild hepatic impairment and ≥2 patients with moderate hepatic impairment had been enrolled and followed for ≥48 hours after dosing to ensure no significant safety signals were observed. On Day 1, patients received a single oral dose of etrasimod 2 mg after ≥10-hour fast. PK and safety data were collected over 21 days. Safety was assessed by adverse event monitoring, vital signs, physical and neurological examination, 12-lead electrocardiogram (ECG), and clinical laboratory evaluations. Plasma concentrations of etrasimod were determined via liquid chromatography-tandem mass spectrometry (LC-MS/MS) from matrix-matched calibration curves between 0.25 to 100.0 ng/ml and 0.1 to 120.4 ng/mL for total etrasimod (bound and unbound) and unbound etrasimod, respectively. Analyte LC-MS/MS quantitation reagents included an ACE C18 column, a 20-mM ammonium acetate/acetonitrile mobile phase, a Shimadzu LC pump and autosampler, and a Sciex API6500+MS with an electrospray probe in negative multiple reaction monitoring. Plasma protein-free supernatant was collected via ultracentrifugation at 223,000 g for 4 hours. Unbound etrasimod concentrations were only measured four hours post dose and results assumed to apply to other PK collection times. For protein precipitation, acetonitrile was applied to a 1:1 mixed matrix of plasma: supernatant. The positive control was warfarin. Plasma concentrations and PK parameters were summarized by hepatic function using descriptive statistics. Unbound etrasimod PK parameters were based on total etrasimod PK parameters adjusted by percent unbound. Mean plasma concentration-time profiles were presented graphically. Phoenix WinNonlin (CertaraUSA, Inc.) was used for PK analysis.

[2] = Safety and tolerability of a single oral dose of etrasimod in the hepatic impairment study; assay type: in vivo, human; conditions: single oral dose 2 mg; normal hepatic function or mild, moderate, severe hepatic impairment
From the text: as §1
An open-label, parallel-group study included 36 patients (aged 18-80 years; body mass index ≥18) with hepatic impairment, based on Child-Pugh score at screening (mild=5-6 [n=8], moderate=7-9 [n=8], severe=10-14 [n=6]), and demographically matched control patients with normal hepatic function (n=14 total). The first patient with severe hepatic impairment was enrolled after ≥2 patients with mild hepatic impairment and ≥2 patients with moderate hepatic impairment had been enrolled and followed for ≥48 hours after dosing to ensure no significant safety signals were observed. […] Safety was assessed by adverse event monitoring, vital signs, physical and neurological examination, 12-lead electrocardiogram (ECG), and clinical laboratory evaluations. Plasma concentrations of etrasimod were determined via liquid chromatography-tandem mass spectrometry (LC-MS/MS) from matrix-matched calibration curves between 0.25 to 100.0 ng/ml and 0.1 to 120.4 ng/mL for total etrasimod (bound and unbound) and unbound etrasimod, respectively. Analyte LC-MS/MS quantitation reagents included an ACE C18 column, a 20-mM ammonium acetate/acetonitrile mobile phase, a Shimadzu LC pump and autosampler, and a Sciex API6500+MS with an electrospray probe in negative multiple reaction monitoring. […]

[3] = approximately 281 adult subjects treated at various doses; cited from earlier work
ulcerative colitis = conditions: UC patients, cited from earlier work

O=C(O)C[C@H]1CCc2c1[nH]c1ccc(OCc3ccc(C4CCCC4)c(C(F)(F)F)c3)cc21 [Compound 1, (R)-2-(7-(4-cyclopentyl-3-(trifluoromethyl)benzyloxy)-1,2,3,4-tetrahydrocyclopenta[b]indol-3-yl)acetic acid]
half-life ([1]; human, plasma, demographically matched normal control groups): 43.9 to 59.5 h
half-life ([1]; human, plasma, mild hepatic impairment group): 55.7 h
half-life ([1]; human, plasma, moderate hepatic impairment group): 69.7 h
half-life ([1]; human, plasma, severe hepatic impairment group): 76.5 h
Tmax ([1]; human, fasted, across all groups, plasma, read-out: median tmax): 4 to 8 h
unbound etrasimod AUC vs demographically matched normal control groups ([1]; all hepatic impairment groups): typically comparable
mean plasma concentration-time profiles ([1]; moderate and severe hepatic impairment groups): slightly higher
mean plasma concentration-time profiles ([1]; normal hepatic function vs mild hepatic impairment groups): overlapped
changes in etrasimod exposure ([1]; patients with mild, moderate or severe hepatic impairment): relatively modest changes
unbound etrasimod Cmax, lower vs demographically matched normal control groups ([1]; progressively lower in mild, moderate and severe hepatic impairment groups): up to 42.0%
peak exposure (Cmax) vs demographically matched normal control groups ([1]; total etrasimod, all hepatic impairment groups): comparable
safety findings [2]: no clinically significant safety findings
tolerability [2]: well tolerated
safety and tolerability [3]: safe and well-tolerated
endoscopic and symptomatic improvements versus placebo (ulcerative colitis; 2 mg QD for 12 weeks): clinically meaningful and statistically significant endoscopic and symptomatic improvements
beneficial effects in open-label extension study (ulcerative colitis; up to 46 weeks): Sustained beneficial effects
